Molecular target: recombinant human UAE (Homo sapiens (Human), UniProt P22314)
Assay: Ubiquitin Activating Enzyme (UAE) HTRF Assay
Settings: read-out: % inhibition @0.111 μM
Method: After incubation for 120 minutes, quantification of the FRET is performed on the Pherostar (BMG).
For compounds whose values are marked with an asterisk (*), mouse UAE was used. For all other compounds, human UAE was used.

recombinant human UAE, sequence (P22314 whole entry): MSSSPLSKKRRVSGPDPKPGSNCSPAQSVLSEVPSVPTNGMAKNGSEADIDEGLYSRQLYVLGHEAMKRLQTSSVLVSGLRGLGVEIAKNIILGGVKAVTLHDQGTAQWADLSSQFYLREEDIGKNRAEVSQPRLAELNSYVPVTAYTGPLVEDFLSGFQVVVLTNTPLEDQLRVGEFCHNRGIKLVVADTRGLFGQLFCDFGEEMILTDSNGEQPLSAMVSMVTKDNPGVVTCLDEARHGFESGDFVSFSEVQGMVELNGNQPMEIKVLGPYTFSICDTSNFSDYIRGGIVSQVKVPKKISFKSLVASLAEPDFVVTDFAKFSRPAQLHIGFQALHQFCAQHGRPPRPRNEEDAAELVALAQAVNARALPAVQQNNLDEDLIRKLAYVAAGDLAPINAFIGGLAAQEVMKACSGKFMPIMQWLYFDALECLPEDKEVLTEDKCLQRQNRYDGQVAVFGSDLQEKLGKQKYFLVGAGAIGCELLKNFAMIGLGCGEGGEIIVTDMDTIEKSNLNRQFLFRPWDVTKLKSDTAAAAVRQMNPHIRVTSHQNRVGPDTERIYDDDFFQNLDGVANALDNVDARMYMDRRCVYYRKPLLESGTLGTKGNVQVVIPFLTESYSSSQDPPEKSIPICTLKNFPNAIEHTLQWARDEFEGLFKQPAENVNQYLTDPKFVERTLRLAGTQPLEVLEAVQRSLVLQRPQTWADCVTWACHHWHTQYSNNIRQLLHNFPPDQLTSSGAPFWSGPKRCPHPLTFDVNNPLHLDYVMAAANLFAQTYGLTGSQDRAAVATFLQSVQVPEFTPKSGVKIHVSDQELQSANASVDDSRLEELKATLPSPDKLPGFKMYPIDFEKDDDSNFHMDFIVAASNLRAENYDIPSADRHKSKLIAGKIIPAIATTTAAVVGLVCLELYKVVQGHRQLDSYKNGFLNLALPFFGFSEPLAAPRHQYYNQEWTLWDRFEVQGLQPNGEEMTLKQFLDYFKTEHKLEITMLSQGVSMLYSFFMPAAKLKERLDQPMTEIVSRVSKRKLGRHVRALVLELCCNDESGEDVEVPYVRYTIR

Structure (SMILES)	inhibition at 0.111 µM [%]
NS(=O)(=O)OC[C@H]1C[C@@H](Nc2ccnc3cc(-c4cc(Cl)ccc4OC(F)(F)F)nn23)[C@H](O)[C@@H]1O (relative stereo) [Compound I-057, (rac)-((1R,2R,3S,4R)-4-(2-(5-chloro-2-(trifluoromethoxy)phenyl)pyrazolo[1,5-a]pyrimidin-7-ylamino)-2,3-dihydroxycyclopentyl)methyl rel-sulfamate]	100
NS(=O)(=O)OC[C@H]1C[C@@H](Nc2ccnc3cc(-c4coc5ccccc45)nn23)[C@H](O)[C@@H]1O (relative stereo) [Compound I-049, (rac)-((1R,2R,3S,4R)-4-(2-(benzofuran-3-yl)pyrazolo[1,5-a]pyrimidin-7-ylamino)-2,3-dihydroxycyclopentyl)methyl rel-sulfamate]	100
NS(=O)(=O)OC[C@H]1C[C@@H](Nc2ccnc3cc(-c4cccc(SCC5CC5)c4)nn23)[C@H](O)[C@@H]1O (relative stereo) [Compound I-076, (rac)-((1R,2R,3S,4R)-4-(2-(3-(cyclopropylmethylthio)phenyl)pyrazolo[1,5-a]pyrimidin-7-ylamino)-2,3-dihydroxycyclopentyl)methyl rel-sulfamate]	100
NS(=O)(=O)OC[C@H]1C[C@@H](Nc2ccnc3cc(-c4cccc(Br)c4)nn23)[C@H](O)[C@@H]1O (relative stereo) [Compound I-028, (rac)-((1R,2R,3S,4R)-4-((2-(3-Bromophenyl)pyrazolo[1,5-a]pyrimidin-7-yl)amino)-2,3-dihydroxycyclopentyl)methyl rel-sulfamate]	99
COc1ccc(SC(F)(F)F)cc1-c1cc2nccc(N[C@@H]3C[C@H](COS(N)(=O)=O)[C@@H](O)[C@H]3O)n2n1 [Compound I-120, (s.e.)-((1R,2R,3S,4R)-2,3-dihydroxy-4-(2-(2-methoxy-5-(trifluoromethylthio)-phenyl)pyrazolo[1,5-a]pyrimidin-7-ylamino)cyclopentyl)methyl sulfamate]	100
COC(C)(C)c1cccc(-c2cc3nccc(N[C@@H]4C[C@H](COS(N)(=O)=O)[C@@H](O)[C@H]4O)n3n2)c1 (relative stereo) [Compound I-082, (rac)-((1R,2R,3S,4R)-2,3-dihydroxy-4-(2-(3-(2-methoxypropan-2-yl)phenyl)pyrazolo[1,5-a]pyrimidin-7-ylamino)cyclopentyl)methyl rel-sulfamate]	100
NS(=O)(=O)OC[C@H]1C[C@@H](Nc2ccnc3cc(-c4cncc5ccccc45)nn23)[C@H](O)[C@@H]1O (relative stereo) [Compound I-018, (rac)-((1R,2R,3S,4R)-2,3-dihydroxy-4-(2-(isoquinolin-4-yl)pyrazolo[1,5-a]pyrimidin-7-ylamino)cyclopentyl)methyl rel-sulfamate]	100
CC1(C)CCc2ccc(-c3cc4nccc(N[C@@H]5C[C@H](COS(N)(=O)=O)[C@@H](O)[C@H]5O)n4n3)cc21 (relative stereo) [Compound I-041, (rac)-((1R,2R,3S,4R)-4-(2-(3,3-dimethyl-2,3-dihydro-1H-inden-5-yl)pyrazolo[1,5-a]pyrimidin-7-ylamino)-2,3-dihydroxycyclopentyl)methyl rel-sulfamate]	99
Cc1cc(N[C@@H]2C[C@H](COS(N)(=O)=O)[C@@H](O)[C@H]2O)n2nc(-c3ccccc3)cc2n1 (relative stereo) [Compound I-004, (rac)-{(1R,2R,3S,4R)-2,3-dihydroxy-4-[(5-methyl-2-phenylpyrazolo[1,5-a]pyrimidin-7-yl)amino]cyclopentyl}methyl rel-sulfamate]	31
Cc1ccc2ccccc2c1-c1cc2nccc(N[C@@H]3C[C@H](COS(N)(=O)=O)[C@@H](O)[C@H]3O)n2n1 [Compound I-114, (s.e.)-((1R,2R,3S,4R)-2,3-dihydroxy-4-(2-(2-methylnaphthalen-1-yl)pyrazolo[1,5-a]pyrimidin-7-ylamino)cyclopentyl)methyl sulfamate]	99
NS(=O)(=O)OC[C@H]1C[C@@H](Nc2ccnc3cc(-c4cccc(Cc5ccccc5)c4)nn23)[C@H](O)[C@@H]1O (relative stereo) [Compound I-069, (rac)-((1R,2R,3S,4R)-4-(2-(3-benzylphenyl)pyrazolo[1,5-a]pyrimidin-7-ylamino)-2,3-dihydroxycyclopentyl)methyl rel-sulfamate]	84
NS(=O)(=O)OC[C@H]1C[C@@H](Nc2ccnc3cc(-c4ccc5ccccc5n4)nn23)[C@H](O)[C@@H]1O (relative stereo) [Compound I-042, (rac)-((1R,2R,3S,4R)-2,3-dihydroxy-4-(2-(quinolin-2-yl)pyrazolo[1,5-a]pyrimidin-7-ylamino)cyclopentyl)methyl rel-sulfamate]	100
NS(=O)(=O)OC[C@H]1C[C@@H](Nc2ccnc3cc(-c4ccc(SC(F)(F)F)cc4)nn23)[C@H](O)[C@@H]1O (relative stereo) [Compound I-080, (rac)-((1R,2R,3S,4R)-2,3-dihydroxy-4-(2-(4-(trifluoromethylthio)phenyl)pyrazolo[1,5-a]pyrimidin-7-ylamino)cyclopentyl)methyl rel-sulfamate]	80
NS(=O)(=O)OC[C@H]1C[C@@H](Nc2ccnc3cc(-c4ccc5[nH]ccc5c4)nn23)[C@H](O)[C@@H]1O (relative stereo) [Compound I-074, (rac)-[(1R,2R,3S,4R)-2,3-dihydroxy-4-{[2-(1H-indol-5-yl)pyrazolo[1,5-a]pyrimidin-7-yl]amino}cyclopentyl]methyl rel-sulfamate]	98
NS(=O)(=O)OC[C@H]1C[C@@H](Nc2ccnc3cc(-c4cccc5cc(C(=O)O)ccc45)nn23)[C@H](O)[C@@H]1O (relative stereo) [Compound I-099, (rac)-rel-5-[7-({(1R,2S,3R,4R)-2,3-dihydroxy-4-[(sulfamoyloxy)methyl]cyclopentyl}amino)pyrazolo[1,5-a]pyrimidin-2-yl]-2-naphthoic acid]	100
NS(=O)(=O)OC[C@H]1C[C@@H](Nc2ccnc3cc(-c4cc5ccccc5[nH]4)nn23)[C@H](O)[C@@H]1O (relative stereo) [Compound I-024, (rac)-((1R,2R,3S,4R)-4-(2-(1H-indol-2-yl)pyrazolo[1,5-a]pyrimidin-7-ylamino)-2,3-dihydroxycyclopentyl)methyl rel-sulfamate]	98
NS(=O)(=O)OC[C@H]1C[C@@H](Nc2ccnc3cc(-c4ccccc4SC(F)(F)F)nn23)[C@H](O)[C@@H]1O (relative stereo) [Compound I-079, (rac)-((1R,2R,3S,4R)-2,3-dihydroxy-4-(2-(2-(trifluoromethylthio)phenyl)pyrazolo[1,5-a]pyrimidin-7-ylamino)cyclopentyl)methyl rel-sulfamate]	75
NS(=O)(=O)OC[C@H]1C[C@@H](Nc2ccnc3cc(-c4cccc(Oc5ccccc5)c4)nn23)[C@H](O)[C@@H]1O (relative stereo) [Compound I-051, (rac)-((1R,2R,3S,4R)-2,3-Dihydroxy-4-((2-(3-phenoxyphenyl)pyrazolo[1,5-a]pyrimidin-7-yl)amino)cyclopentyl)methyl rel-sulfamate]	90

Source: patent US10202389B2, “Pyrazolopyrimidinyl inhibitors of ubiquitin-activating enzyme” (Millennium Pharmaceuticals, Inc., priority 2012, dated 2019)
